Laboratory results reported in the Bradley open melting point set (2014).
Values joined by “and” are separate entries in the source; they are usually repeats but may differ in a detail not shown here. Equal entries are not always repeated.

| SMILES | melting point |
| --- | --- |
| O=C1Nc2ccccc2C1=O [Isatin] | 203 °C |
| CC(C)c1ccccc1 [Isopropylbenzene] | -96 °C |
| CC(C(=O)O)c1cccc(C(=O)c2ccccc2)c1 (stereo unspecified) [Ketoprofen] | 94 °C |
| C[C@H](N)C(=O)N[C@@H](C)C(=O)O [L-Alanyl-L-alanine] | 280 °C |
| CC[C@H](C)[C@H](N)C(=O)O [L-Isoleucine] | 169 °C |
| C[C@@H](O)[C@H](N)C(=O)O [L-Threonine] | 256 °C |
| N[C@H](CO)Cc1ccccc1 [L-phenylalaninol] | 92 °C |
| N[C@@H](Cc1ccc(O)c(O)c1)C(=O)O [Levodopa] | 277 °C |
| ClC1C(Cl)C(Cl)C(Cl)C(Cl)C1Cl (stereo unspecified) [Lindane] | 112 °C |
| CCOC(=O)O[C@]1(C(=O)OCCl)CC[C@H]2[C@@H]3CCC4=CC(=O)C=C[C@]4(C)[C@H]3[C@@H](O)C[C@@]21C [Loteprednol] | 222 °C |
| CNC(=O)O/N=C(\C)SC [Methyl (1E)-N-[(methylcarbamoyl)oxy]ethanimidothioate] | 79 °C |
| COS(C)(=O)=O [Methyl methanesulfonate] | 20 °C |
| N#CSCSC#N [Methylene bis(thiocyanate)] | 106 °C |
| CNN [Methylhydrazine] | -80 °C |
| CCN(CC)CCNC(=O)c1cc(Cl)c(N)cc1OC [Metoclopramide] [listing 1 of 2 here] | 147 °C |
| Cc1ncc([N+](=O)[O-])n1CCO [Metronidazole] | 160 °C |
| CC(=O)Nc1ccc(/C=C/c2ccc(NC(C)=O)cc2)cc1 [N,N'-[(E)-ethene-1,2-diyldibenzene-4,1-diyl]diacetamide] | 172 °C |
| O=C(Nc1ccc(/C=C/c2ccc(NC(=O)c3ccccc3)cc2)cc1)c1ccccc1 [N,N'-[(E)-ethene-1,2-diyldibenzene-4,1-diyl]dibenzamide] | 253 °C |
| CC(=O)NC1CCCCC(NC(C)=O)CCCC1 (stereo unspecified) [N,N'-cyclodecane-1,6-diyldiacetamide] | 256 °C |
| C=CC(=O)NCCNC(=O)C=C [N,N'-ethylenebisacrylamide] | 142 °C |
| O=P1(N(CCCl)CCCl)NCCCO1 (stereo unspecified) [N,N-Bis(2-chloroethyl)-1,3,2-oxazaphosphinan-2-amine 2-oxide] | 43 °C |
| CCN(CC)c1ccccc1 [N,N-Diethylaniline] | -38 °C |

| SMILES | melting point |
| --- | --- |
| CN(C)c1ccc(N)cc1 [N,N-Dimethylbenzene-1,4-diamine] | 35 °C |
| CCN(CC)c1ccccc1 [N,N-diethylaniline] | -38 °C |
| CCN(C)C [N,N-dimethylethylamine] | -140 °C |
| NC(=S)Nc1cccc2ccccc12 [N-(1-naphthyl)thiourea] | 188 °C |
| O=C1c2ccccc2C(=O)N1OCCCCBr [N-(4-bromobutoxy)phthalimide] | 71 °C |
| CSCC[C@H](NC(C)=O)C(=O)O [N-Acetyl-L-methionine] | 106 °C |
| Cc1ccc(S(=O)(=O)NC2CCCCC2)cc1 [N-Cyclohexyl-4-methylbenzenesulfonamide] | 84.5 °C |
| CCNCC [N-Ethylethanamine] | -50 °C |
| CCC(C)=NO [N-Hydroxybutan-2-imine] | -29.5 °C |
| CNc1ccccc1 [N-Methylaniline] | -57 °C |
| CCCCCCCC [N-Octane] | -56.8 °C |
| c1ccc(Nc2ccccc2)cc1 [N-Phenylaniline] | 53 °C |
| CCCCCCCCCCCCC(=O)O [N-Tridecanoic Acid] | 44.5 °C |
| CC(=O)Nc1ccccc1NNc1ccccc1 [N-[2-(2-phenylhydrazino)phenyl]acetamide] | 168 °C |
| CC(=O)NS(=O)(=O)c1ccc(N)cc1 [N-[(4-Aminophenyl)sulfonyl]acetamide] | 182 °C |
| CCCCCCCCCCCCCCCCCCCCCC [N-docosane] | 45 °C |
| CCCCCCS(=O)(=O)CC#N [N-hexylsulfonylacetonitrile] | 42 °C |
| Cn1c2c(c3ccccc31)CCCC2 [N-methyl-1,2,3,4-tetrahydrocarbazole] | 53 °C |
| CNC(C)=O [N-methylacetamide] | 27 °C |
| CNc1ccccc1 [N-methylaniline] | -57 °C |
| CCCCCCCCCCCCCCCCCCC [N-nonadecane] | 33 °C |
| O=C(Nc1ccccc1)Nc1nnc(C(F)(F)F)s1 [N-phenyl-N'-[5-(trifluoromethyl)-1,3,4-thiadiazol-2-yl]urea] | 150 °C |

Results, then the compound that gave them:

| melting point | SMILES |
| --- | --- |
| 171 °C | NNC(=O)c1ccncc1 [Isoniazid] |
| 88.8 °C | O=Cc1cccc(C=O)c1 [Isophthalaldehyde] |
| 132 °C | CO[C@@H]1[C@@H](O[C@@H]2O[C@H](C)[C@@H](O[C@H]3C[C@@](C)(O)[C@@H](OC(=O)CC(C)C)[C@H](C)O3)[C@H](N(C)C)[C@H]2O)[C@@H](CC=O)C[C@@H](C)[C@@H](O)C=CC=CC[C@@H](C)OC(=O)C[C@H]1OC(C)=O [Josamycin] |
| 221 °C | N=C(N)NCCC[C@H](N)C(=O)O [L-Arginine] |
| 308 °C | CC(C)[C@H](N)C(=O)O [L-Valine] |
| 139 °C | C[C@@H]1O[C@@H](O)[C@@H](O)[C@H](O)[C@@H]1O [L-fucose] |
| 230 °C | Cc1cccc(Nc2ccccc2C(=O)O)c1C [Mefenamic acid] |
| 98 °C | CC1(C)OC(=O)CC(=O)O1 [Meldrum's Acid] |
| 43 °C | CC(C)[C@@H]1CC[C@@H](C)C[C@H]1O [Menthol] |
| -182 °C | C [Methane] |
| 131 °C | COC(=O)c1ccc(O)cc1 [Methyl 4-hydroxybenzoate] |
| -95 °C | CCCC(=O)OC [Methyl butyrate] |
| -48 °C | C=C(C)C(=O)OC [Methyl methacrylate] |
| -88 °C | CCC(=O)OC [Methyl propionate] |
| 147 °C | CCN(CC)CCNC(=O)c1cc(Cl)c(N)cc1OC [Metoclopramide] [listing 2 of 2 here] |
| 256 °C | Cc1ccccc1N1C(=O)c2cc(S(N)(=O)=O)c(Cl)cc2NC1C (stereo unspecified) [Metolazone] |
| 114 °C | Oc1ccc(OCc2ccccc2)cc1 [Monobenzone] |
| 130 °C | Oc1ccccc1C=NCCN=Cc1ccccc1O [N,N'-bis(salicylidene)ethylenediamine] |
| -140 °C | CCN(C)C [N,N-Dimethylethanamine] |

| melting point | SMILES |
| --- | --- |
| -61 °C | CN(C)C=O [N,N-Dimethylformamide] |
| 10 °C | CC(C)N(C=O)C(C)C [N,N-diisopropylformamide] |
| -61 °C | CN(C)C=O [N,N-dimethylformamide] |
| 144 °C | COc1ccccc1NC(=O)/C=CC(=O)O [N-(2-methoxyphenyl)maleamic acid] |
| 118 °C | Cc1ccccc1CNC(=O)c1ccccc1 [N-(2-methylbenzyl)benzamide] |
| 114 °C | CC(C)(C)c1cnc(C(=O)Nc2cccc(Br)c2)cn1 [N-(3-bromophenyl)-5-tert-butylpyrazine-2-carboxamide] |
| 99 °C and 100 °C | CN(C)c1ccc(/C=N/c2ccccc2)cc1 [N-(4-Dimethylaminobenzylidene)aniline] |
| 134 °C | CCOc1ccc(NC(C)=O)cc1 [N-(4-Ethoxyphenyl)acetamide] |
| 129 °C | O=C1C=CC(=O)N1c1ccc(Br)cc1 [N-(4-bromophenyl)maleimide] |
| 208 °C | c1cc(ccc1NC(=O)/C=CC(=O)O)F [N-(4-fluorophenyl)maleamic acid] |
| 106 °C | CSCC[C@H](NC(C)=O)C(=O)O [N-Acetylmethionine] |
| 159 °C | CN1C(=O)CCC(N2C(=O)c3ccccc3C2=O)C1=O (stereo unspecified) [N-Methylthalidomide] |
| 136 °C | CCCN1C(=O)CCC(N2C(=O)c3ccccc3C2=O)C1=O (stereo unspecified) [N-Propylthalidomide] |
| 115 °C | O=[N+]([O-])c1cccc2cccc(/C=N/c3ccccc3)c12 [N-[(1E)-(8-nitronaphthalen-1-yl)methylidene]aniline] |
| 74 °C | C=CCNC(N)=S [N-allylthiourea] |
| 57 °C | CCCC[C@@H](NC(=O)OCc1ccccc1)C(=O)O [N-benzyloxycarbonyl-D-norleucine] |
| 119 °C | O=C(O)CC[C@H](NC(=O)OCc1ccccc1)C(=O)O [N-benzyloxycarbonyl-l-glutamic acid] |
| 94 °C | O=C(N[C@H](CO)Cc1ccccc1)OCc1ccccc1 [N-benzyloxycarbonyl-l-phenylalaninol] |
| 77 °C | CC(C)(C)OC(=O)N[C@H](Cc1cccc(F)c1)C(=O)O [N-boc-3-fluoro-d-phenylalanine] |

| melting point | SMILES |
| --- | --- |
| 119 °C | CC(C)(C)OC(=O)N[C@@H](Cc1ccc(Br)cc1)C(=O)O [N-boc-4-bromo-L-phenylalanine] |
| 83 °C | C[C@@H](NC(=O)OC(C)(C)C)C(=O)O [N-boc-D-alanine] |
| 87 °C | CC(C)(C)OC(=O)N[C@H](Cc1ccccc1)C(=O)O [N-boc-D-phenylalanine] |
| 87 °C | CC(C)(C)OC(=O)N[C@@H](Cc1ccccc1)C(=O)O [N-boc-L-phenylalanine] |
| 61 °C | CC(C)(C)OC(=O)N1CCC[C@H]1CO [N-boc-L-prolinol] |
| -19 °C | CCCCOc1ccccc1 [N-butyl phenyl ether] |
| -113 °C | C=COCCCC [N-butyl vinyl ether] |
| 111 °C | O=C(NC(CO)C(=O)O)OCc1ccccc1 (stereo unspecified) [N-carbobenzoxy-serine] |
| 88 °C | Cc1ccc(S(=O)(=O)NC2CCCCC2)cc1 [N-cyclohexyl-p-toluenesulfonamide] |
| 162 °C | O=C(NC1CCCCC1)c1ccccc1 [N-cyclohexylbenzamide] |
| 37 °C | CCCCCCCCCCCCCCCCCCCC [N-eicosane] |
| 144 °C | CC(C)[C@H](NC(=O)OCC1c2ccccc2-c2ccccc21)C(=O)O [N-fmoc-L-valine] |
| 22 °C | CCCCCCCCCCCCCCCCC [N-heptadecane] |
| -91 °C | CCCCCCC [N-heptane] |
| 18 °C | CCCCCCCCCCCCCCCC [N-hexadecane] |
| -80 °C | CCCCCCOC(C)=O [N-hexyl acetate] |
| -53 °C | CCCCCCCCC [N-nonane] |
| -57 °C | CCCCCCCC [N-octane] |
| -36 °C | CCCCCCCCc1ccccc1 [N-octylbenzene] |
